Results reported in the supplement of paper PMC10307832.

The cell lines below were run with CC1=C(C(=NN1)C)CC2=C(C3=C(S2)N(C(=O)N(C3=O)C)CC(C)C)C(=O)N4C[C@@H](CO4)O (assay: relative viability (nuclei count vs DMSO), 5 days (fraction); higher = more cells survive). Settings: 0.0025 µM.
Method in brief: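 Vehicle-anchored 1536-well plates of lung cancer cell lines, held overnight at 37 °C, were pinned with five library-drug doses (not always all listed) spaced by √10. No medium change followed over the next 5 days, after which the cells were fixed, permeabilised and Hoechst-stained together and imaged at 4×. Nuclei were counted with MetaXpress, and viability is treated-well nuclei over vehicle-well nuclei, taken as a median across plates. Plates passed with control CV below 25% and at least one doubling.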
Cell Line Calu-6 has a relative viability of 1.04. Work on HCC-366 yielded a relative viability of 0.986. Cell Line NCI-H1666 has a relative viability of 1.09. Cell Line NCI-H596 has a relative viability of 1.09. Cell Line LK-2 has a relative viability of 1. NCI-H2087 showed a relative viability of 1.05. In the case of SK-MES-1, the relative viability was 1.03. H3255 gave a relative viability of 1.01. Work on COR-L23 yielded a relative viability of 0.965. With COR-L 105 the relative viability was 0.952. Cell Line IA-LM has a relative viability of 0.945. Work on LOU-NH91 yielded a relative viability of 1. Cell Line NCI-H2170 has a relative viability of 0.973. NCI-H2405 was tested, and the relative viability was 1.1. Cell Line HOP-62 has a relative viability of 0.962. HCC-44 gave a relative viability of 1.01. Cell Line A549 has a relative viability of 1.04. For LU99A, the relative viability was 0.968. In the case of BEN, the relative viability was 0.885. With HARA the relative viability was 1.03. Work on HCC-78 yielded a relative viability of 1.08. For NCI-H322M, the relative viability was 0.98. In the case of LCLC-97TM1, the relative viability was 1.05. NCI-H2009 gave a relative viability of 1.07. Work on A-427 yielded a relative viability of 1.04. With NCI-H661 the relative viability was 0.948. NCI-H1734 was tested, and the relative viability was 1.01. In the case of NCI-H460, the relative viability was 1.02. In the case of NCI-H2347, the relative viability was 1.11. For SK-LU-1, the relative viability was 0.914.

Same assay, conditions: 0.007906 µM
With NCI-H2085 the relative viability was 0.954. Calu-6 gave a relative viability of 1.01. Cell Line HCC-366 has a relative viability of 1.03. In the case of NCI-H1666, the relative viability was 0.97. Cell Line NCI-H596 has a relative viability of 1.13. For LK-2, the relative viability was 1.03. With NCI-H2087 the relative viability was 1.13. In the case of SK-MES-1, the relative viability was 1.07. H3255 was tested, and the relative viability was 0.925. For COR-L23, the relative viability was 1.08. Work on COR-L 105 yielded a relative viability of 0.976. With IA-LM the relative viability was 0.998. Cell Line LOU-NH91 has a relative viability of 0.989. Cell Line NCI-H2170 has a relative viability of 1.02. In the case of NCI-H2405, the relative viability was 1.04. With HOP-62 the relative viability was 0.976. Work on HCC-44 yielded a relative viability of 1.01. In the case of A549, the relative viability was 1.11. LU99A was tested, and the relative viability was 0.995. Cell Line BEN has a relative viability of 0.949. HARA was tested, and the relative viability was 1.05. Work on HCC-78 yielded a relative viability of 1.14. NCI-H322M showed a relative viability of 1.02. LCLC-97TM1 showed a relative viability of 1.13. NCI-H2009 showed a relative viability of 1.08. For A-427, the relative viability was 1.1. Cell Line NCI-H661 has a relative viability of 0.997. NCI-H1734 showed a relative viability of 1.16. With NCI-H460 the relative viability was 1.08. With NCI-H2347 the relative viability was 1.2. SK-LU-1 gave a relative viability of 0.789.

Same assay, conditions: 0.025 µM
NCI-H2085 showed a relative viability of 0.939. Calu-6 gave a relative viability of 0.982. For HCC-366, the relative viability was 1.03. With NCI-H1666 the relative viability was 1.01. For NCI-H596, the relative viability was 0.978. In the case of LK-2, the relative viability was 0.818. Cell Line NCI-H2087 has a relative viability of 0.951. For SK-MES-1, the relative viability was 1.02. H3255 gave a relative viability of 0.866. For COR-L23, the relative viability was 0.919. COR-L 105 was tested, and the relative viability was 0.897. In the case of IA-LM, the relative viability was 0.96. With LOU-NH91 the relative viability was 1.01. Work on NCI-H2170 yielded a relative viability of 0.966. NCI-H2405 was tested, and the relative viability was 0.653. For HOP-62, the relative viability was 0.953. In the case of HCC-44, the relative viability was 0.992. In the case of A549, the relative viability was 0.931. In the case of LU99A, the relative viability was 0.887. Work on BEN yielded a relative viability of 0.735. HARA showed a relative viability of 1.01. HCC-78 gave a relative viability of 0.845. NCI-H322M gave a relative viability of 0.948. LCLC-97TM1 was tested, and the relative viability was 0.98. With NCI-H2009 the relative viability was 0.963. A-427 gave a relative viability of 0.996. For NCI-H661, the relative viability was 0.956. Work on NCI-H1734 yielded a relative viability of 1.03. For NCI-H460, the relative viability was 0.955. For NCI-H2347, the relative viability was 0.949. SK-LU-1 gave a relative viability of 0.634.

Same assay, conditions: 0.07906 µM
With NCI-H2085 the relative viability was 0.981. In the case of Calu-6, the relative viability was 1.03. For HCC-366, the relative viability was 0.988. Cell Line NCI-H1666 has a relative viability of 0.983. NCI-H596 gave a relative viability of 1.04. Cell Line LK-2 has a relative viability of 0.804. Work on NCI-H2087 yielded a relative viability of 0.92. SK-MES-1 was tested, and the relative viability was 1.07. In the case of H3255, the relative viability was 0.94. COR-L23 was tested, and the relative viability was 0.933. In the case of COR-L 105, the relative viability was 0.897. IA-LM was tested, and the relative viability was 1.02. LOU-NH91 gave a relative viability of 1.12. Work on NCI-H2170 yielded a relative viability of 0.906. For NCI-H2405, the relative viability was 0.921. Cell Line HOP-62 has a relative viability of 0.977. HCC-44 gave a relative viability of 0.931. With A549 the relative viability was 0.953. Work on LU99A yielded a relative viability of 1.03. Cell Line BEN has a relative viability of 0.788. HARA showed a relative viability of 1.02. For HCC-78, the relative viability was 0.91. NCI-H322M was tested, and the relative viability was 1.02. LCLC-97TM1 gave a relative viability of 0.957. NCI-H2009 gave a relative viability of 1.09. A-427 showed a relative viability of 1.05. With NCI-H661 the relative viability was 0.946. NCI-H1734 was tested, and the relative viability was 0.889. Cell Line NCI-H460 has a relative viability of 0.968. NCI-H2347 showed a relative viability of 0.983. For SK-LU-1, the relative viability was 0.714.

Same assay, conditions: 0.25 µM
For NCI-H2085, the relative viability was 0.793. Calu-6 gave a relative viability of 1.03. With HCC-366 the relative viability was 1.04. NCI-H1666 was tested, and the relative viability was 1.02. In the case of NCI-H596, the relative viability was 1.11. With LK-2 the relative viability was 0.898. For NCI-H2087, the relative viability was 1.26. SK-MES-1 showed a relative viability of 1.06. Cell Line H3255 has a relative viability of 1.1. In the case of COR-L23, the relative viability was 0.976. In the case of COR-L 105, the relative viability was 1.02. Work on IA-LM yielded a relative viability of 1.07. For LOU-NH91, the relative viability was 1.03. For NCI-H2170, the relative viability was 0.965. NCI-H2405 was tested, and the relative viability was 0.962. HOP-62 was tested, and the relative viability was 1.17. In the case of HCC-44, the relative viability was 1.05. Cell Line A549 has a relative viability of 1.04. LU99A gave a relative viability of 0.893. In the case of BEN, the relative viability was 0.865. In the case of HARA, the relative viability was 1. HCC-78 gave a relative viability of 0.832. For NCI-H322M, the relative viability was 0.919. LCLC-97TM1 was tested, and the relative viability was 1.02. With NCI-H2009 the relative viability was 1.09. Work on A-427 yielded a relative viability of 1.1. NCI-H661 was tested, and the relative viability was 0.964. With NCI-H1734 the relative viability was 0.962. With NCI-H460 the relative viability was 1.06. With NCI-H2347 the relative viability was 1.04. With SK-LU-1 the relative viability was 0.615.
